From US12544370B2, “Methods for cancer therapy” (ASCENTAGE PHARMA (SUZHOU) CO., LTD., priority 2018, dated 2026)

Key:
[1] = test system: CRKL phosphorylation in PBMCs, a biomarker of BCR-ABL inhibition; assay: Phase 1 trial, CRKL phosphorylation in PBMCs (Example 2); assay type: in vivo, human; details: 53 evaluable patients
Source text: The eligible patients received treatments until disease progression or intolerable toxicities. The primary efficacy endpoint in the CML AP and CP patients, was complete hematological response (CHR) and major cytogenetic response (MCyR) respectively, MCyR includes partial cytogenetic response (PCyR) and complete cytogenetic response (CCyR). Blood samples were collected at various time points on Day 1-2 and Day 27-28 during cycle 1 for PK analyses.

[2] = Phase I study, pharmacokinetics (Example 1); assay type: in vivo, human
[3] = biological target: Ba/F3 containing BCR-ABL mutation E255K (Homo sapiens, UniProt P00519, E255K, cells depend on it); details: read-out: Antiproliferation Effect (IC50)
Source text: (§1) Ba/F3 cells stably expressing BCR-ABL (F359V, H396R, E255K, Y253H, T315I, F317L) mutations were provided by the Institute of Life and Health, Guangzhou Academy of Sciences.
(§2) 1. The mutated Ba/F3 cell line stably expressing BCR-ABL (E255V, T315M, Y253H/E255V, Y253H/T315I, Y253H/F359V, T315I/F317L, F317L/F359V) mutation was constructed by electro-transformation method, the Ba/F3 cell line stably expressing the BCR-ABL (E255V/T315I, T315I/F359V) mutation was constructed by lentivirus infection method.
(§3) 2. Effect of drugs on the proliferation of BaF3 cells stably transfected with BCR-ABL single mutation or complex mutation by WST assay
(§4) The dilution was used as a cell blank control (excluding the sample to be tested, which was added to the cells). In addition, a negative control (excluding the sample to be tested and cells) was prepared. In addition to the negative control wells, 100 μl of complete medium cell suspension was added to each well. The dilution was added to the negative control wells at 100 μl/well. 3 repeated wells were set in the experiment. […] 20 μl of CCK-8 detection solution (Shanghai Life iLab Biotech Co., LTD, Cat #D3100L4057) was added to each well, incubating at 37° C. for 2 hours in a CO2 incubator. The OD value was measured at A450 nm by a microplate reader.
(§5) The percentage of cell viability was calculated using the following formula: (O.D. test well-O.D. negative control well)/(O.D. cell control well-O.D. negative control well)×100
(§6) The IC50 was calculated using a non-linear regression data analysis method of Graphpad Prism 6.0 software ([…]).

[4] = biological target: Ba/F3 containing BCR-ABL mutation T315I/F359V (Homo sapiens, UniProt P00519, T315I/F359V, cells depend on it); details: read-out: Antiproliferation Effect (IC50)
Source text: as §1, §2, §3, §4, §5, §6

[5] = biological target: Ba/F3 containing BCR-ABL mutation T315I/F317L (Homo sapiens, UniProt P00519, T315I/F317L, cells depend on it); details: read-out: Antiproliferation Effect (IC50)
Source text: as §1, §2, §3, §4, §5, §6

[6] = biological target: Ba/F3 containing BCR-ABL mutation Y253H/T315I (Homo sapiens, UniProt P00519, Y253H/T315I, cells depend on it); details: read-out: Antiproliferation Effect (IC50)
Source text: as §1, §2, §3, §4, §5, §6

[7] = biological target: Ba/F3 containing BCR-ABL mutation Y253H (Homo sapiens, UniProt P00519, Y253H, cells depend on it); details: read-out: Antiproliferation Effect (IC50)
Source text: as §1, §2, §3, §4, §5, §6

[8] = biological target: Ba/F3 containing BCR-ABL mutation E255V/T315I (Homo sapiens, UniProt P00519, E255V/T315I, cells depend on it); details: read-out: Antiproliferation Effect (IC50)
Source text: as §1, §2, §3, §4, §5, §6

[9] = biological target: Ba/F3 containing BCR-ABL mutation Y253H/E255V (Homo sapiens, UniProt P00519, Y253H/E255V, cells depend on it); details: read-out: Antiproliferation Effect (IC50)
Source text: as §1, §2, §3, §4, §5, §6

[10] = biological target: Ba/F3 containing BCR-ABL mutation T315I (Homo sapiens, UniProt P00519, T315I, cells depend on it); details: read-out: Antiproliferation Effect (IC50)
Source text: as §1, §2, §3, §4, §5, §6

[11] = biological target: Ba/F3 containing BCR-ABL mutation H396R (Homo sapiens, UniProt P00519, H396R, cells depend on it); details: read-out: Antiproliferation Effect (IC50)
Source text: as §1, §2, §3, §4, §5, §6

[12] = biological target: Ba/F3 containing BCR-ABL mutation Y253H/F359V (Homo sapiens, UniProt P00519, Y253H/F359V, cells depend on it); details: read-out: Antiproliferation Effect (IC50)
Source text: as §1, §2, §3, §4, §5, §6

[13] = biological target: Ba/F3 containing BCR-ABL mutation E255V (Homo sapiens, UniProt P00519, E255V, cells depend on it); details: read-out: Antiproliferation Effect (IC50)
Source text: as §1, §2, §3, §4, §5, §6

[14] = biological target: Ba/F3 containing BCR-ABL mutation F317L (Homo sapiens, UniProt P00519, F317L, cells depend on it); details: read-out: Antiproliferation Effect (IC50)
Source text: as §1, §2, §3, §4, §5, §6

[15] = biological target: Ba/F3 containing BCR-ABL mutation T315M (Homo sapiens, UniProt P00519, T315M, cells depend on it); details: read-out: Antiproliferation Effect (IC50)
Source text: as §1, §2, §3, §4, §5, §6

[16] = biological target: Ba/F3 containing BCR-ABL mutation F359V (Homo sapiens, UniProt P00519, F359V, cells depend on it); details: read-out: Antiproliferation Effect (IC50)
Source text: as §1, §2, §3, §4, §5, §6

[17] = biological target: Ba/F3 containing BCR-ABL Wild Type (Homo sapiens, UniProt P00519); details: read-out: Antiproliferation Effect (IC50)
[18] = test system: human CML xenograft model; assay: Subcutaneous tumors, human CML xenograft model; assay type: in vivo

Cc1ccc(C(=O)Nc2ccc(CN3CCN(C)CC3)c(C(F)(F)F)c2)cc1C#Cc1cnc2[nH]ncc2c1 [compound of formula (I-A), 3-(2-(1H-pyrazolo[3,4-b]pyridin-5-yl)ethynyl)-4-methyl-N-(4-((4-methylpiperazin-1-yl)methyl)-3-(trifluoromethyl)phenyl)-benzamide]
reduction of CRKL phosphorylation in PBMCs [1]: dose and time dependent
time at which peak concentration was reached ([2]; oral, 1 mg to 60 mg): 2 to 8 h
dose proportionality of Cmax and AUC0-t ([2]; single or multiple oral dose 1 to 60 mg): approximately dose proportional increase
GI50 [3]: 22 ± 13 nM
GI50 [4]: 7 ± 1 nM
GI50 [5]: 114 ± 9 nM
GI50 [6]: 111 ± 1 nM
GI50 [7]: 7 ± 1 nM
GI50 [8]: 26 ± 11 nM
GI50 [9]: 122 nM
GI50 [10]: 24 ± 10 nM
GI50 [11]: 274 ± 82 nM
GI50 [12]: 100 ± 81 nM
GI50 [13]: 13.5 ± 1 nM
GI50 [14]: 8 ± 3 nM
GI50 [15]: 217 ± 131 nM
GI50 [16]: 281 ± 187 nM
GI50 [17]: 6 ± 3 nM
effect on subcutaneous tumors [18]: complete regression
